From ChEMBL document CHEMBL4476864, “Azapeptides as cd36 binding compounds” (2013) come the findings set out here.

Test [1] deals with Mus musculus. Put plainly: Inhibition of choroidal neovascularization in CD36-/- C57BL/6 mouse model of FITC-conjugated dextran infusion following laser-induced posterior retinal injury administered in to vitreous tissue. In kind it is functional, organism-based.
In test [2] the test system is Aorta. Nature of the test: Inhibition of vascular sprouting in CD36+/+ C57BL/6 mouse aortic rings exposed on day 4 to 6. In kind it is functional, tissue-based.
In test [3] the test system is Aorta. Nature of the test: Inhibition of vascular sprouting in CD36-/- C57BL/6 mouse aortic rings exposed on day 4 to 6. The class given is functional, tissue-based.
Test [4] deals with Mus musculus. Nature of the test: Inhibition of choroidal neovascularization in CD36+/+ C57BL/6 mouse model of FITC-conjugated dextran infusion following laser-induced posterior retinal injury administered in to vitreous tissue. The class given is functional.

The source made the active and inactive calls. No cut-off for these calls is given here. Starred links: 1 amine or outer side, 2 acyl side, 3 side chain; linkers in the order of their positions; H or OH if unused. Non-standard residues stand in square brackets, D forms with d. Residues, ends and D or L forms follow the SMILES beside them. azaTyr = O=C(N(Cc1ccc(O)cc1)N[*:1])[*:2]

Take `C[C@H](NC(=O)[C@@H](Cc1c[nH]c2ccccc12)NC(=O)[C@@H](N)Cc1cnc[nH]1)C(=O)NN(Cc1ccc(O)cc1)C(=O)N[C@H](Cc1ccccc1)C(=O)N[C@@H](CCCCN)C(N)=O` (H-H[dW]A[azaTyr][dF]K-NH2): the inhibition result in the test with Mus musculus [1] and in the test on Aorta [3] was “inactive” in each case. Also, the inhibition entry in the test on Aorta [2] was “Dose-dependent effect”. In addition, the “inhibition (INH)” value with Mus musculus [4] is greater than 50%.
